This data set deals with patients diagnosed to be voiding dysfunction associated with neurogenic bladder. The experiment in a line: Clinical test to patients of voiding dysfunction associated with neurogenic bladder. In kind it is in vivo. Here is the method:
Test Example 1. Clinical Test to Patients of Voiding Dysfunction Associated with Neurogenic Bladder. Clinical test was carried out under the following conditions to the causes of voiding dysfunction associated with neurogenic bladder. Patients: Sixty patients diagnosed to be voiding dysfunction associated with neurogenic bladder (excluding the cases where the cause was peripheral diseases). Used drug and method of administration: Capsule preparation containing 0.2 mg of tamsulosin hydrochloride or placebo capsule was used and two capsules were orally administered after breakfast (once daily) for four weeks. […] Approximate safety was evaluated as no problem, little problems, some problems and problems according to the presence/absence and degree of side effect, change of blood pressure and pulse rate, and abnormal change in clinical date. Impression by the patient was judged to be much improvement, improvement, some improvement, no change, some worsening, worsening and much worsening. Finally, degree of improvement as a whole, approximate safety and impression by patient were taken into consideration and the final judgement for the Usefulness wan judged to be any of the […]—very useful, useful, somewhat useful and not preferable.

Where [1] appears, read: compared with placebo group, two 0.2 mg capsules orally once daily, four weeks.
The mark [2] stands for this setting: share of patients (12/20), two 0.2 mg capsules orally once daily, four weeks.
Where [3] appears, read: two 0.2 mg capsules orally once daily after breakfast, four weeks, n = 16.
The mark [4] stands for this setting: two 0.2 mg capsules orally once daily after breakfast, four weeks, n = 23.

Structures can show the parent of a compound that is named as a salt.

Consider `CCOc1ccccc1OCCN[C@H](C)Cc1ccc(OC)c(S(N)(=O)=O)c1` [Tamsulosin Hydrochloride, (R)(−)-5-{2-{[2-(o-ethoxyphenoxy)ethyl}amino]propyl}-2-methoxybenzene-sulfonamide], for which, under setting [1], the “Approximate safety (side effect, blood pressure, pulse rate, clinical data)” value is on record as “no significant difference” and the Impression by patient result is listed as “no significant difference”. For the same compound, the “Usefulness as a therapeutic agent (final judgement, in words)” value (impression by the patients further taken into consideration) is on record as “useful as a therapeutic agent”. Besides, where the note is “patients suffering from voiding dysfunction associated with neurogenic bladder”, the “Improvement of subjective symptom and objective observation and improvement as a whole (in words)” value is “significant improvement”. Also, where the note is “share of patients (10/23), two 0.2 mg capsules orally once daily, four weeks”, the “Degree of Improvement in Subjective Symptoms, ≧Medium Improvement” value was 43.5%. For the same compound, under setting [2], the “Degree of Improvement as a Whole, ≧Medium Improvement” value was 60.0% and the “Degree of Improvement in Objective Observation, ≧Medium Improvement” value is given as 80.0%. Further, under “share of patients (12/23), two 0.2 mg capsules orally once daily, four weeks”, the “Usefulness, ≧Useful” value came out at 52.2%. In addition, under setting [3], the “Average Urinary Flow (Changing Amt)” value came out at 1.2 ± 1.66 mL/s, the “Maximum Urinary Flow (Changing Amt)” value came to 2.5 ± 3.01 mL/s and the “Residual Urine Rate (Changing Amt)” value is −13 ± 20.0%. Under setting [4], the “Residual Urine Amount (Changing Amt)” value was -18 ± 80.1 mL and the “Total Score (Changing Rate) of subjective symptoms (1)-(8)” value is reported as −31 ± 34.2%.

The values are drawn from patent publication US6861070B1, “Medicinal compositions for treating evacuatory insufficiency” (Yamanouchi Pharmaceutical Co., Ltd., priority 1998, dated 2005).
